# In ChEMBL document CHEMBL1156268, “Michael acceptor based antiplasmodial and antitrypanosomal cysteine protease inhibitors with unusual amino acids” (J Med Chem, 2010):
# pIC50, pKi: −log10 of the molar value. Calls of active or inactive are those of the source. The rule behind the calls is not given here. Residues, ends and D or L forms follow the SMILES beside them. *: point of attachment. X1 = O=C(/C=C/CO)*
# Tests used:
# [1] = Cytotoxicity against mouse J774.1 cells; assay type: cell-based
# Rhodesain = Rhodesain (Trypanosoma brucei rhodesiense, UniProt Q95PM0); experiment: (§1) Inhibition of Trypanosoma brucei rhodesiense recombinant rhodesain by standard fluorescence assay
# Rhodesain, sequence (Q95PM0 whole entry): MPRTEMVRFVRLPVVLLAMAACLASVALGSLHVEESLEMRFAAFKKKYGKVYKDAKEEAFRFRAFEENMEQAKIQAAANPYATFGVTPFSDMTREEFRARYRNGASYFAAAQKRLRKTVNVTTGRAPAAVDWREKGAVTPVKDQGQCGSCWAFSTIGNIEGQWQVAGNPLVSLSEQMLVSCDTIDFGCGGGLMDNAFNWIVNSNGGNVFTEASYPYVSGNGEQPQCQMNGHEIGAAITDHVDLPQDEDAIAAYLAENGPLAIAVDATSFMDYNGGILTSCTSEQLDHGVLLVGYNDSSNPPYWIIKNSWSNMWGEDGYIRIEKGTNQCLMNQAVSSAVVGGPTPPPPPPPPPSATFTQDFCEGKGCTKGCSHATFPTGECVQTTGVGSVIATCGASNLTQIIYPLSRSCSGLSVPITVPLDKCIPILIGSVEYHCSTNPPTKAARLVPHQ
# [2] = Inhibition of Plasmodium falciparum recombinant falcipain-3 by standard fluorescence assay
# [3] = test system: Trypanosoma brucei brucei; experiment: Antitrypanosomal activity against Trypanosoma brucei brucei; assay type: functional, organism-based
# [4] = Inhibition of Plasmodium falciparum recombinant falcipain-2 using Cbz-Leu-Arg-AMC as substrate by standard fluorescence assay
# Plasmodium falciparum [5] = experiment: Antiplasmodial activity against Plasmodium falciparum W2 by flow cytometry; assay type: functional, organism-based
# [6] = Selectivity index, ratio of IC50 for mouse J774.1 cells to IC50 for Trypanosoma brucei brucei; assay type: toxicity; conditions: J774.1 cells versus Trypanosoma brucei brucei, read-out: Ratio IC50
# Plasmodium falciparum [7] = experiment: Antiplasmodial activity against Plasmodium falciparum W2 at 100 uM by flow cytometry; assay type: functional
# [8] = biological target: Rhodesain (Trypanosoma brucei rhodesiense) (UniProt Q95PM0); experiment: Inhibition of Trypanosoma brucei rhodesiense recombinant rhodesain at 100 uM by standard fluorescence assay
# Rhodesain (Trypanosoma brucei rhodesiense), sequence (Q95PM0 1-450): as the sequence (Q95PM0 whole entry) above
# Plasmodium falciparum [9] = experiment: Inhibition of Plasmodium falciparum recombinant falcipain-3 at 100 uM by standard fluorescence assay
# Plasmodium falciparum [10] = experiment: Inhibition of Plasmodium falciparum recombinant falcipain-2 at 100 uM by standard fluorescence assay
# [11] = test system: Trypanosoma brucei brucei; experiment: Antitrypanosomal activity against Trypanosoma brucei brucei at 100 uM; assay type: functional, organism-based
# [12] = biological target: Rhodesain (Trypanosoma brucei rhodesiense) (UniProt Q95PM0); experiment: as §1; conditions: TDE = time-dependent effect
# Plasmodium falciparum [13] = experiment: Antiplasmodial activity against Plasmodium falciparum FCBR by flow cytometry; assay type: functional, organism-based; conditions: FCBR/Columbia
SMILES,pIC50 [3],pKi [4],pIC50 (Plasmodium falciparum [5]),inhibition (Plasmodium falciparum [7]),inhibition [8],inhibition (Plasmodium falciparum [9]),inhibition (Plasmodium falciparum [10]),inhibition [11],further results
C[C@H](NC(=O)[C@H](Cc1ccccc1)NC(=O)/C=C\C(=O)N[C@@H](Cc1ccccc1)C(=O)OCc1ccccc1)C(=O)O,5.66,5.42,5.10,,,,,,pIC50 [1]: 4.49; pKi (Rhodesain): 5.85; pKi [2]: 4.37; selectivity ratio [6]: 10
C/C=C/C(=O)N[C@@H](Cc1ccccc1)C(=O)OCc1ccccc1,5.55,4.69,,inactive,inactive,inactive,,,pIC50 [1]: 4.34
CCOC(=O)/C=C/OC[C@H](CCC(N)=O)NC(=O)OC(C)(C)C,,,,inactive,inactive,inactive,inactive,inactive,
CCOC(=O)/C=C\CNC(=O)[C@@H](Cc1ccccc1)NC(=O)OC(C)(C)C,4.54,,4.37,,47%,,inactive,,
CCOC(=O)/C=C\C(=O)OC[C@H](Cc1ccccc1)NC(=O)OC(C)(C)C,4.77,4.27,4.00,,,inactive,,,
CCOC(=O)/C=C\C(=O)N[C@@H](Cc1ccccc1)C(=O)OCc1ccccc1,5.10,4.58,,,15%,inactive,,,pIC50 [1]: 5.48; inhibition at 100 µM (Plasmodium falciparum [7]): 28%
O=C(O)/C=C/C(=O)N[C@@H](Cc1ccccc1)C(=O)OCc1ccccc1,,,,inactive,11%,,inactive,inactive,
CCOC(=O)/C=C/C(=O)N[C@@H](CCC(N)=O)C(=O)OC(C)(C)C,,,4.12,,inactive,inactive,inactive,inactive,
O=C(/C=C/C(=O)N[C@@H](Cc1ccccc1)C(=O)OCc1ccccc1)N[C@@H](Cc1ccccc1)C(=O)OCc1ccccc1,,6.01,,inactive,,,,inactive,Time-dependent inhibition (qualitative) [12]: tde; pKi (Rhodesain): 6.47; pKi [2]: 5.55
CCOC(=O)/C=C/C(=O)O.CCOC(=O)/C=C/C(=O)OC[C@H](CC(N)=O)NC(=O)[C@@H](NC(=O)OC(C)(C)C)c1ccccc1,4.48,,,,51%,,45%,,pIC50 (Plasmodium falciparum [13]): 4.66
CCOC(=O)/C=C/CCOC(=O)[C@H](Cc1ccccc1)NC(=O)OCc1ccccc1,4.72,4.54,,inactive,36%,inactive,,,pIC50 [1]: < 4.00
CCOC(=O)/C=C/C(=O)O.CCOC(=O)/C=C/C(=O)OC[C@H](CCC(N)=O)NC(=O)[C@@H](NC(=O)OC(C)(C)C)c1ccccc1,4.50,,,,25%,,inactive,,
C[C@H](NC(=O)[C@H](Cc1ccccc1)NC(=O)/C=C\C(=O)O)C(=O)OCc1ccccc1,,4.60,4.30,,,inactive,,,
CCOC(=O)/C=C/CN[C@@H](CCC(N)=O)C(=O)OC(C)(C)C,,,,inactive,inactive,inactive,inactive,inactive,
CCOC(=O)/C=C/COC(=O)[C@H](CC(N)=O)NC(=O)[C@@H](NC(=O)OC(C)(C)C)C1CCCCC1,,,4.88,,inactive,inactive,inactive,inactive,
CCOC(=O)/C=C/C(=O)N[C@@H](CC(=O)NC(c1ccccc1)(c1ccccc1)c1ccccc1)C(=O)OC,4.60,4.92,5.14,,20%,inactive,,,
CCOC(=O)/C=C\C(=O)N[C@@H](Cc1ccccc1)C(=O)N[C@@H](C)C(=O)OCc1ccccc1,5.57,4.60,,inactive,43%,inactive,,,pIC50 [1]: 5.52
CCOC(=O)/C=C\C(=O)N[C@@H](Cc1ccccc1)C(=O)N[C@@H](C)C(=O)N[C@@H](CC(C)C)C(=O)OCc1ccccc1,4.83,5.18,4.55,,29%,,,,pIC50 [1]: 4.54; pKi [2]: 4.43
O=C(/C=C\C(=O)N[C@@H](Cc1ccccc1)C(=O)OCc1ccccc1)N[C@@H](Cc1ccccc1)C(=O)O,5.54,4.99,4.00,,,inactive,,,pIC50 [1]: 4.51; pKi (Rhodesain): 6.82; selectivity ratio [6]: 10
CCOC(=O)/C=C/COC(=O)[C@H](CC(N)=O)NC(=O)[C@H](CC(C)C)NC(=O)OC(C)(C)C,,4.60,,inactive,inactive,inactive,,inactive,

SMILES,pIC50 [3],pKi [4],pIC50 (Plasmodium falciparum [5]),inhibition (Plasmodium falciparum [7]),inhibition [8],inhibition (Plasmodium falciparum [9]),inhibition (Plasmodium falciparum [10]),inhibition [11],further results
CCOC(=O)/C=C/CN[C@@H](Cc1ccccc1)C(=O)OCc1ccccc1,4.60,3.82,,inactive,inactive,inactive,,,pIC50 [1]: 4.44
CCOC(=O)/C=C/C(=O)N[C@@H](Cc1ccccc1)C(=O)OCc1ccccc1,6.60,5.33,,inactive,,,,,pIC50 [1]: 5.46; pKi (Rhodesain): 5.12; pKi [2]: 4.18; selectivity ratio [6]: 10
CCOC(=O)/C=C/N[C@@H](CCC(N)=O)C(=O)OC(C)(C)C,,,,inactive,inactive,inactive,inactive,inactive,
CCOC(=O)/C=C/CN[C@@H](CC(N)=O)C(=O)OC(C)(C)C,,,,inactive,inactive,inactive,inactive,inactive,
CCOC(=O)/C=C/C(=O)N[C@@H](CCC(=O)NC(c1ccccc1)(c1ccccc1)c1ccccc1)C(=O)OC,4.51,5.48,5.33,,,,,,pKi (Rhodesain): 5.85; pKi [2]: 4.83
CC(C)C[C@H](NC(=O)[C@H](C)NC(=O)[C@H](Cc1ccccc1)NC(=O)/C=C\C(=O)O)C(=O)OCc1ccccc1,,4.98,4.84,,,inactive,,,
CC(C)C[C@H](NC(=O)[C@H]1O[C@@H]1C(=O)O)C(=O)NCCCCN=C(N)N [E-64],,7.60,,,,,,,pKi [2]: 6.66; pIC50 (Plasmodium falciparum [13]): 5.49
CCOC(=O)/C=C/C(=O)N[C@@H](CC(N)=O)C(=O)OC(C)(C)C,,,,inactive,inactive,inactive,inactive,inactive,
CCOC(=O)/C=C/C(=O)O.CCOC(=O)/C=C/C(=O)OC[C@H](CCC(N)=O)NC(=O)OC(C)(C)C,,,,inactive,inactive,inactive,inactive,inactive,
CCOC(=O)/C=C/COC(=O)[C@H](CCC(N)=O)NC(=O)[C@H](CC(C)C)NC(=O)[C@H](C)NC(=O)OC(C)(C)C,,5.51,4.68,,inactive,,,inactive,pKi [2]: 4.62
CCOC(=O)/C=C/COC(=O)[C@H](CCC(N)=O)NC(=O)OC(C)(C)C,,4.42,,inactive,inactive,inactive,,inactive,
CCOC(=O)/C=C/COC(=O)[C@H](CC(N)=O)NC(=O)OC(C)(C)C,,4.77,4.46,,inactive,,,inactive,pKi [2]: 4.24
CCOC(=O)/C=C/C(=O)O.CCOC(=O)/C=C/C(=O)OC[C@H](CC(N)=O)NC(=O)OC(C)(C)C,,,,inactive,inactive,inactive,inactive,inactive,
CCOC(=O)/C=C/COC(=O)[C@H](CCC(N)=O)NC(=O)[C@@H](NC(=O)OC(C)(C)C)C1CCCCC1,4.49,4.60,,inactive,inactive,inactive,,,
CC(C)C[C@H](NC(=O)[C@H](CCC(N)=O)NC(=O)/C=C/CO)C(=O)N[C@H](C(=O)N[C@H](C(N)=O)C(C)C)C(C)C (X1-QLVV-NH2),,,,,inactive,,27%,,
CCOC(=O)/C=C/N[C@@H](CC(N)=O)C(=O)OC(C)(C)C,,,,inactive,inactive,inactive,inactive,inactive,
CCOC(=O)/C=C\[C@H](Cc1ccccc1)NC(=O)OC(C)(C)C,,4.78,4.00,,inactive,,,inactive,pKi [2]: 3.70
O=C(O)/C=C\C(=O)N[C@@H](Cc1ccccc1)C(=O)OCc1ccccc1,,5.12,4.00,,inactive,,,inactive,pKi [2]: 4.37
CCOC(=O)/C=C/COC(=O)[C@H](CCC(N)=O)NC(=O)[C@H](CC(C)C)NC(=O)OC(C)(C)C,,,,inactive,inactive,inactive,inactive,inactive,
